# Source: patent US9211310B2, “Use of a Chinese medicine composition in preparing medicaments for treating secondary prevention of myocardial infarction” (TASLY PHARMACEUTICAL GROUP CO., LTD, priority 2010, dated 2015)
# System: patients after acute myocardial infarction
# Test: Life quality, Seattle Angina Questionnaire (SAQ), same clinical trial
# Assay type: in vivo, human
# Conditions: FAS
# Source text: 3508 patients who were in accordance with the diagnostic standards of AMI for 28 days to 2 years and differentiated as Qi deficiency and blood stagnation syndrome by TCM were studied. 0.5 g Chinese medicine composition prepared by the method of EXAMPLE 1 (Coded as QSYQ) was administrated half an hour after meal, 3 times per day.
# There were 19 questions in the Seattle angina questionnaire (SAQ), including 5 parts: physical limitation (PL), anginal stability (AS), anginal frequency (AF), treatment satisfaction (TS) and disease perception (DP). After being given necessary explanation by doctors, the questions were answered independently by patients.
# They included the overall survival time, angina pectoris score, TCM symptom score and life quality score, where angina pectoris score, TCM symptom score and life quality score were evaluated at randomization, in 1st, 3rd, 6th, 9th, 12th month after treatment and 18th month after follow-up.
# All evaluation results of SAQ were described during the period of observation, and Wilcoxon rank sum test was used for inter-group comparison.
# The evaluation results in the SAQ were depicted in different observations, and inter-group comparison was tested by Wilcoxon Rank-sum test.
smiles,measurement,setting,value
"CC(=O)Oc1ccccc1C(=O)O [Control group, aspirine]","SAQ Question 1-2 Moderately limited, number of patients",1 month after treatment,14
same,"SAQ Question 1-2 Moderately limited, percent of patients",1 month after treatment,(0.80%)
same,"SAQ Question 1-2 Not limited, number of patients",1 month after treatment,1575
same,"SAQ Question 1-2 Not limited, percent of patients",1 month after treatment,(90.36%)
same,"SAQ Question 1-2 Other reasons, number of patients",1 month after treatment,6
same,"SAQ Question 1-2 Other reasons, percent of patients",1 month after treatment,(0.34%)
same,"SAQ Question 1-2 Severely limited, number of patients",1 month after treatment,0
same,"SAQ Question 1-2 Severely limited, percent of patients",1 month after treatment,(0.00%)
same,"SAQ Question 1-2 Slightly limited, percent of patients",1 month after treatment,(6.66%)
same,"SAQ Question 1-6: Mildly limited, patients (%)",1 month after treatment,(18.54%)
same,"SAQ Question 1-6: Moderately limited, patients (%)",1 month after treatment,(14.85%)
same,"SAQ Question 1-6: Not limited, patients (%)",1 month after treatment,(29.59%)
same,"SAQ Question 1-6: Other reasons, patients (%)",1 month after treatment,(0.81%)
same,"SAQ Question 1-6: Severely limited, patients (%)",1 month after treatment,(5.18%)
same,"SAQ Question 1-6: Slightly limited, patients (%)",1 month after treatment,(31.03%)
same,"SAQ Question 1-7: Mildly limited, patients (%)",1 month after treatment,(23.73%)
same,"SAQ Question 1-7: Moderately limited, patients (%)",1 month after treatment,(17.45%)
same,"SAQ Question 1-7: Not limited, patients (%)",1 month after treatment,(12.86%)
same,"SAQ Question 1-7: Other reasons, patients (%)",1 month after treatment,(2.85%)
same,"SAQ Question 1-7: Severely limited, patients (%)",1 month after treatment,(17.68%)
same,"SAQ Question 1-7: Slightly limited, patients (%)",1 month after treatment,(25.42%)
same,"SAQ Question 1-8: Mildly limited, patients (%)",1 month after treatment,(24.13%)
same,"SAQ Question 1-8: Moderately limited, patients (%)",1 month after treatment,(20.52%)
same,"SAQ Question 1-8: Not limited, patients (%)",1 month after treatment,(9.01%)
same,"SAQ Question 1-8: Other reasons, patients (%)",1 month after treatment,(2.79%)
same,"SAQ Question 1-8: Severely limited, patients (%)",1 month after treatment,(22.27%)
same,"SAQ Question 1-8: Slightly limited, patients (%)",1 month after treatment,(21.28%)
same,"8th question: Dissatisfied, patients (%)",3 months after treatment,(0.17%)
same,"8th question: Highly satisfied, patients (%)",3 months after treatment,(19.09%)
same,"8th question: Mostly dissatisfied, patients (%)",3 months after treatment,(3.10%)
same,"8th question: Mostly satisfied, patients (%)",3 months after treatment,(52.81%)
same,"8th question: Partly satisfied, patients (%)",3 months after treatment,(24.83%)
same,"9th question: Few, patients (%)",3 months after treatment,(31.88%)
same,"9th question: Mild, patients (%)",3 months after treatment,(33.54%)
same,"9th question: Moderate, patients (%)",3 months after treatment,(15.60%)
same,"9th question: Severe, patients (%)",3 months after treatment,(1.49%)
same,"9th question: Uneffective, patients (%)",3 months after treatment,(17.49%)
same,"10th question: Dissatisfied, patients (%)",3 months after treatment,(21.33%)
same,"10th question: Highly satisfied, patients (%)",3 months after treatment,(4.70%)
same,"10th question: Mostly dissatisfied, patients (%)",3 months after treatment,(22.19%)
same,"10th question: Mostly satisfied, patients (%)",3 months after treatment,(24.20%)
same,"10th question: Partly satisfied, patients (%)",3 months after treatment,(27.58%)
same,"11th question: Continuously worried, patients (%)",3 months after treatment,(5.39%)
same,"11th question: No worried, patients (%)",3 months after treatment,(4.87%)
same,"11th question: Occasionally worried, patients (%)",3 months after treatment,(40.94%)
same,"11th question: Often worried, patients (%)",3 months after treatment,(18.29%)
same,"11th question: Seldom worried, patients (%)",3 months after treatment,(30.50%)
same,"SAQ 4th question, 1-2 times per week: % of patients",3 months after treatment,(16.69%)
same,"SAQ 4th question, 1-2 times per week: number of patients",3 months after treatment,291
same,"SAQ 4th question, 1-3 times per day: % of patients",3 months after treatment,(5.56%)
same,"SAQ 4th question, 1-3 times per day: number of patients",3 months after treatment,97
same,"SAQ 4th question, <1 time per week: % of patients",3 months after treatment,(11.47%)
same,"SAQ 4th question, <1 time per week: number of patients",3 months after treatment,200
same,"SAQ 4th question, Not used: % of patients",3 months after treatment,(55.50%)
same,"SAQ 4th question, Not used: number of patients",3 months after treatment,968
same,"SAQ 4th question, ≧3 times per week: % of patients",3 months after treatment,(10.72%)
same,"SAQ 4th question, ≧3 times per week: number of patients",3 months after treatment,187
same,"SAQ 4th question, ≧4 times per day: % of patients",3 months after treatment,(0.06%)
same,"SAQ 4th question, ≧4 times per day: number of patients",3 months after treatment,1
same,"SAQ 5th question, Few: % of patients",3 months after treatment,(24.60%)
same,"SAQ 5th question, Few: number of patients",3 months after treatment,429
same,"SAQ 5th question, Mild: % of patients",3 months after treatment,(26.26%)
same,"SAQ 5th question, Mild: number of patients",3 months after treatment,458
same,"SAQ 5th question, Moderate: % of patients",3 months after treatment,(15.65%)
same,"SAQ 5th question, Moderate: number of patients",3 months after treatment,273
same,"SAQ 5th question, None: % of patients",3 months after treatment,(27.41%)
same,"SAQ 5th question, None: number of patients",3 months after treatment,478
same,"SAQ 5th question, Not medicated by doctors: % of patients",3 months after treatment,(4.36%)
same,"SAQ 5th question, Not medicated by doctors: number of patients",3 months after treatment,76
same,"SAQ 5th question, Severe: % of patients",3 months after treatment,(1.72%)
same,"SAQ 5th question, Severe: number of patients",3 months after treatment,30
same,"SAQ 6th question, Dissatisfied: % of patients",3 months after treatment,(0.23%)
same,"SAQ 6th question, Dissatisfied: number of patients",3 months after treatment,4
same,"SAQ 6th question, Highly satisfied: % of patients",3 months after treatment,(19.61%)
same,"SAQ 6th question, Highly satisfied: number of patients",3 months after treatment,342
same,"SAQ 6th question, Mostly dissatisfied: % of patients",3 months after treatment,(2.64%)
same,"SAQ 6th question, Mostly dissatisfied: number of patients",3 months after treatment,46
